# Values of other authors, collected in US6923993B2, “Process of isolating extract from the Euphorbia obesa plant and methods for using the same” (priority 2001, dated 2005).
# Legend:
# skin of mice = settings: topically applied
# myelocytic leukemia = settings: intravenous 1 mg; patients refractory to cytosine arabinoside, retinoic acid and other antileukemic drugs
# [1] = system: HL-60 human promyelocytic leukemia cells; settings: in vitro
# [2] = system: white blood cell (WBC) count; settings: intravenous; patients with low WBC after cytotoxic chemotherapy
# [3] = doses of 0.5 to 1 mg
smiles,measurement,setting,value
"CCCCCCCCCCCCCC(=O)O[C@@H]1[C@@H](C)[C@@]2(O)[C@@H](C=C(CO)C[C@]3(O)C(=O)C(C)=C[C@@H]23)[C@H]2C(C)(C)[C@]12OC(C)=O [TPA, 12-O-tetradecanoyl-13-phorbol acetate]",effect on mouse skin,skin of mice,tumor promoter
same,activity in myelocytic leukemia patients,myelocytic leukemia,pharmacological activity
same,differentiation and DNA synthesis of HL-60 cells,[1],stimulate differentiation and inhibit DNA synthesis
same,WBC count and neutrophils in the blood,[2],increase in WBC count and neutrophilia
same,toxicity in vivo,[3],toxic effects
